The subject of assay [1] is SARS-CoV-2 main protease. Type of assay: biochemical. To be noted: Docking validation set, class assigned from COVID Moonshot IC50.
The subject of the next assay is Mpro. To be noted: ML dataset, Origin COVID_Moonshot; ref COVID Moonshot; cited from earlier work.
For assay [2], the system named is SARS, SARS-CoV-2 and MERS Mpro. Particulars: Origin COVID_Moonshot; ref COVID Moonshot; cited from earlier work.
Assay [3] deals with SARS-CoV-2 main protease. To be noted: cited from earlier work; for pIC50: Docking_validation.csv, ref COVID Moonshot, read-out: f_avg_IC50; for f_avg_pIC50: Covid_Moonshot_activity_data.csv, ref COVID Moonshot (covid.postera.ai).

pIC50: −log10 of the molar value.

Take `Cn1ccc(C(=O)NC[C@@H]2CCCO2)n1` [AAR-POS-0daf6b7e-23, Cn1ccc(C(=O)NC[C@@H]2CCCO2)n1]: the “label (active / inactive)” value with SARS-CoV-2 main protease [1] is “inactive”.
The same measure, in the same setting: the entry for `Cc1ccncc1CC(=O)Nc1cccc2c1CNCC2` [ADA-UCB-6c2cb422-3, Cc1ccncc1CC(=O)Nc1cccc2c1CNCC2] is “inactive”.
For `NCc1cn(CC(=O)N(CC(=O)N2CCNCC2)c2ccc(-c3ccccc3)cc2)nn1` [ALP-POS-c0c213c9-7, NCc1cn(CC(=O)N(CC(=O)N2CCNCC2)c2ccc(-c3ccccc3)cc2)nn1], in the assay on SARS-CoV-2 main protease [1], the “label (active / inactive)” value is “inactive”.
Consider `Cn1ccc(CN(C(=O)Cc2cccnc2)c2ccc(-c3ccccn3)cc2)n1` [ALP-POS-c0c213c9-14, Cn1ccc(CN(C(=O)Cc2cccnc2)c2ccc(-c3ccccn3)cc2)n1], for which the “label (active / inactive)” value in the assay on SARS-CoV-2 main protease [1] was “inactive”.
Regarding `O=C(Cn1nnc2ccccc21)N(Cc1ccccn1)c1ccc(-n2cnnc2)cc1` [ALP-POS-c0c213c9-18, O=C(Cn1nnc2ccccc21)N(Cc1ccccn1)c1ccc(-n2cnnc2)cc1], the “label (active / inactive)” value in the assay with SARS-CoV-2 main protease [1] was “inactive”.
On to `Cc1ccn2c(-c3ccc4[nH]ncc4c3)c(-c3ccc(F)cc3)nc2c1` [ALV-UNI-7ff1a6f9-14, Cc1ccn2c(-c3ccc4[nH]ncc4c3)c(-c3ccc(F)cc3)nc2c1], for which the “label (active / inactive)” value in the assay on SARS-CoV-2 main protease [1] is “inactive”.
As to `CC(=O)N1CCN(CC(=O)Nc2cnccc2C)CC1` [BEN-DND-93268d01-8, CC(=O)N1CCN(CC(=O)Nc2cnccc2C)CC1], in the assay on SARS-CoV-2 main protease [1], the “label (active / inactive)” value was “inactive”.
On the same count and under the same terms, the entry for `O=C(Nc1nncn1C1CC1)C1CCOc2c(F)cccc21` (stereo not shown) [BRU-THA-a358fbdd-7, O=C(Nc1nncn1C1CC1)C1CCOc2c(F)cccc21] is “inactive”.
As to `O=C(COc1ccccc1F)Nc1ncnc2[nH]cnc12` [COM-UCB-8c7d23dc-1, O=C(COc1ccccc1F)Nc1ncnc2[nH]cnc12], in the assay with SARS-CoV-2 main protease [1], the “label (active / inactive)” value was “inactive”.
For `Cc1[nH]c2ncnc(NC(=O)c3cc4ccccc4c(=O)o3)c2c1C` [COM-UCB-8c7d23dc-12, Cc1[nH]c2ncnc(NC(=O)c3cc4ccccc4c(=O)o3)c2c1C], the “label (active / inactive)” value in the assay with SARS-CoV-2 main protease [1] was “inactive”.
Turning to `O=C(Nc1c[nH]nc1-c1ccccn1)c1cccc2nccn12` [COM-UCB-8c7d23dc-15, O=C(Nc1c[nH]nc1-c1ccccn1)c1cccc2nccn12], in the assay with SARS-CoV-2 main protease [1], the “label (active / inactive)” value is “inactive”.
Take `Cc1ccncc1NC(=O)N(C)c1cccc(Cl)c1` [EDG-MED-0da5ad92-3, Cc1ccncc1NC(=O)N(C)c1cccc(Cl)c1]: the “label (active / inactive)” value with SARS-CoV-2 main protease [1] is “inactive”.
Regarding `O=C(Nc1nncn1C1CC1)C1CCOc2ccccc21` (stereo not shown) [EDJ-MED-0e996074-1, O=C(Nc1nncn1C1CC1)C1CCOc2ccccc21], the “label (active / inactive)” value in the assay with SARS-CoV-2 main protease [1] is “inactive”.
On the same count and under the same terms, the entry for `O=C(Cc1cccc(Cl)c1)Nc1cnnc2ccccc12` [EDJ-MED-50fe53e8-2, O=C(Cc1cccc(Cl)c1)Nc1cnnc2ccccc12] is “inactive”.
For the compound `C[C@@H]1C[C@@H](C(=O)Nc2cncc3ccccc23)c2cc(Cl)ccc2O1` [EDJ-MED-e4b030d8-2, C[C@H](C[C@H]1C(Nc2cncc3ccccc23)=O)Oc(cc2)c1cc2Cl, reference compound], the pIC50 in the assay on Mpro is 6.42; in assay [2] it was 6.64.
As to `O=C(Nc1nncn1C1CC1)C1CCOc2ccc(Cl)cc21` (stereo not shown) [JAG-UCB-a3ef7265-20, O=C(Nc1nncn1C1CC1)C1CCOc2ccc(Cl)cc21], the “label (active / inactive)” value in the assay with SARS-CoV-2 main protease [1] was “inactive”.
`Cc1ccc(-n2ncc3c(=O)n(CC(N)=O)cnc32)cc1C` [JAG-UCB-ef2c0e8e-4, Cc1ccc(-n2ncc3c(=O)n(CC(N)=O)cnc32)cc1C]: in the assay with SARS-CoV-2 main protease [1], the “label (active / inactive)” value is “inactive”.
On to `CC(=O)NCCc1c[nH]c2ccc(O)cc12` [JOH-MSK-a63bdd1d-4, CC(=O)NCCc1c[nH]c2ccc(O)cc12], for which the “label (active / inactive)” value with SARS-CoV-2 main protease [1] is “inactive”.
Consider `O=C(Nc1cccnc1)N(CCN1CCOCC1)c1cccc(Cl)c1` [JOR-UNI-2fc98d0b-6, O=C(Nc1cccnc1)N(CCN1CCOCC1)c1cccc(Cl)c1], for which, in the assay on SARS-CoV-2 main protease [1], the “label (active / inactive)” value was “inactive”.
For `COC(=O)c1c(C)n(S(C)(=O)=O)c2ccc(N(C(=O)c3ccco3)S(C)(=O)=O)cc12` [LON-WEI-4d77710c-11, Cc1c(C(OC)=O)c(cc(cc2)N(C(c3ccco3)=O)S(C)(=O)=O)c2n1S(C)(=O)=O, reference compound], the pIC50 in the assay with Mpro was 6.20; in assay [2], 6.03.
As to `O=C(O)[C@@H](c1ccccc1)N1Cc2ccccc2C1=O` [LON-WEI-4d77710c-19, OC([C@@H](c1ccccc1)N(Cc1c2cccc1)C2=O)=O, reference compound], the pIC50 is 5.83 in the assay on Mpro and 5.75 in assay [2].
Regarding `CCOC(=O)c1cc(-c2ccccc2)sc1NC(=O)Cc1csc(-c2ccccc2)n1` [LON-WEI-4d77710c-24, CCOC(c1c(NC(Cc2csc(-c3ccccc3)n2)=O)sc(-c2ccccc2)c1)=O, reference compound], the pIC50 in the assay with Mpro is 5.44; in assay [2] it was 5.33.
Turning to `N#Cc1ccc(CN2CCC(C3CCNC3)CC2)cc1` (stereo not shown) [LON-WEI-4d77710c-32, N#Cc1ccc(CN(CC2)CCC2C2CNCC2)cc1, reference compound], the pIC50 with Mpro is 5.77; in assay [2], 5.69.
As to `O=C(Nc1cccc(C(F)(F)F)c1)Nc1ccccc1Sc1ncc([N+](=O)[O-])s1` [LON-WEI-4d77710c-69, O=C(Nc1cccc(C(F)(F)F)c1)Nc1ccccc1Sc1ncc([N+](=O)[O-])s1], the pIC50 in the assay with SARS-CoV-2 main protease [3] is 5.20.
Take `Cc1cc(C)c(C#N)c(Sc2ncnc3c2nnn3Cc2ccccc2)n1` [LON-WEI-4d77710c-73, Cc(cc(C)nc1Sc2ncnc3c2nnn3Cc2ccccc2)c1C#N, reference compound]: the pIC50 is 6.34 in the assay on Mpro and 6.19 in assay [2].
In the case of `O=C(Nc1ccccc1)[C@@H](c1ccccc1)N1Cc2ccccc2C1=O` [LON-WEI-b2874fec-15, O=C(Nc1ccccc1)[C@@H](c1ccccc1)N1Cc2ccccc2C1=O], the “label (active / inactive)” value in the assay on SARS-CoV-2 main protease [1] was “inactive”.
On the same count and under the same terms, the entry for `CC1C(O)CCCN1Cc1ccccc1` (stereo not shown) [MAK-UNK-6435e6c2-9, CC1C(O)CCCN1Cc1ccccc1] is “inactive”.
Turning to `COc1ccc(Cl)cc1OCCNC(=O)c1cc(=O)[nH]c2cccc(OC)c12` [MAT-POS-3b536971-1, COc1ccc(Cl)cc1OCCNC(=O)c1cc(=O)[nH]c2cccc(OC)c12], the pIC50 (with SARS-CoV-2 main protease [3]; in assay [2]) was 6.06 throughout.
Take `COc1cccc2[nH]c(=O)cc(C(=O)N3CCN(c4cccc(Cl)c4)CC3)c12` [MAT-POS-3b536971-2, COc(cccc1N2)c1C(C(N(CC1)CCN1c1cccc(Cl)c1)=O)=CC2=O, reference compound]: the pIC50 in the assay with Mpro is 5.49; in assay [2], 5.33.
Take `C[C@@H]1C[C@H](C(=O)Nc2cncc3ccccc23)c2cc(Cl)ccc2O1` [MAT-POS-8a69d52e-2, C[C@H](C[C@@H]1C(Nc2cncc3ccccc23)=O)Oc(cc2)c1cc2Cl, reference compound]: the pIC50 was 5.78 in the assay with Mpro and 6.17 in assay [2].
In the case of `O=C(Cc1cc(Cl)cc(Oc2cccnc2)c1)Nc1cncc2ccccc12` [MAT-POS-9ff17035-3, O=C(Cc1cc(Cl)cc(Oc2cnccc2)c1)Nc1cncc2ccccc12, reference compound], the values for the pIC50 (in the assay on Mpro; in assay [2]) were 5.85 and 5.87, respectively.
Take `O=C(c1cncc2ccccc12)N1CCN(c2cccc(Cl)c2)CC1` [MAT-POS-54c4bf04-3, O=C(c1cncc2ccccc12)N(CC1)CCN1c1cccc(Cl)c1, reference compound]: the pIC50 in the assay with Mpro was 5.91; in assay [2] it was 5.79.
Take `O=C(Cc1cncc2ccccc12)N(CCC1CCCCC1)c1cccc(Cl)c1` [MAT-POS-173a45da-1, O=C(Cc1cncc2ccccc12)N(CCC1CCCCC1)c1cccc(Cl)c1, reference compound]: the pIC50 in the assay on Mpro is 5.80; in assay [2], 5.68.
Turning to `O=C(c1cc(=O)[nH]c2ccc(F)cc12)N1CCN(S(=O)(=O)c2cccc(Cl)c2)CC1` [MAT-POS-590ac91e-69, O=C(c1cc(=O)[nH]c2ccc(F)cc12)N1CCN(S(=O)(=O)c2cccc(Cl)c2)CC1], the “label (active / inactive)” value in the assay on SARS-CoV-2 main protease [1] was “inactive”.
In the case of `O=C(NCC1(C(=O)Nc2cncc3ccccc23)CCOc2ccc(Cl)cc21)C1COCCN1CC(F)(F)F` (stereo not shown) [MAT-POS-932d1078-1, O=C(NCC1(C(=O)Nc2cncc3ccccc23)CCOc2ccc(Cl)cc21)C1COCCN1CC(F)(F)F], the f_avg_pIC50 with SARS-CoV-2 main protease [3] is 4.666.
`COC[C@]1(C(=O)Nc2cncc3ccccc23)CCOc2cc(Cl)c(Cl)cc21` [MAT-POS-932d1078-4, COC[C@]1(C(=O)Nc2cncc3ccccc23)CCOc2cc(Cl)c(Cl)cc21]: the f_avg_pIC50 in the assay with SARS-CoV-2 main protease [3] is on record as 5.492.
Take `COC[C@@]1(C(=O)Nc2cncc3ccccc23)CCOc2cc(Cl)c(Cl)cc21` [MAT-POS-932d1078-5, COC[C@@]1(C(=O)Nc2cncc3ccccc23)CCOc2cc(Cl)c(Cl)cc21]: in the assay with SARS-CoV-2 main protease [3], the f_avg_pIC50 is reported as 4.772.
As to `O=c1oc(Nc2ccccc2)nc2ccccc12` [MAT-POS-ea426761-13, O=C1OC(Nc2ccccc2)=Nc2c1cccc2, reference compound], the pIC50 in the assay on Mpro was 6.01; in assay [2], 5.80.
With `CC(C)(C)c1ccc(N(C(=O)c2c[nH]cn2)C(C(=O)NCCc2cccc(F)c2)c2cccnc2)cc1` (stereo not shown) [MAT-POS-f2460aef-3, CC(C)(C)c(cc1)ccc1N(C(C(NCCc1cccc(F)c1)=O)c1cnccc1)C(c1c[nH]cn1)=O, reference compound], the pIC50 is 6.17 in the assay on Mpro and 6.54 in assay [2].
In the case of `CC(C)(C)c1ccc(N(C(=O)c2ccc(Cl)o2)C(C(=O)NCCc2cccc(F)c2)c2cccnc2)cc1` (stereo not shown) [MAT-POS-f2460aef-4, CC(C)(C)c(cc1)ccc1N(C(C(NCCc1cc(F)ccc1)=O)c1cnccc1)C(c(o1)ccc1Cl)=O, reference compound], the pIC50 with Mpro is 6.38; in assay [2], 6.50.
Consider `NS(=O)(=O)c1ccc(N2CCC([C@@H]3CCCO3)CC2)cc1` [WAR-XCH-b72a1bbc-18, NS(=O)(=O)c1ccc(N2CCC([C@@H]3CCCO3)CC2)cc1], for which the “label (active / inactive)” value in the assay with SARS-CoV-2 main protease [1] is “inactive”.
Regarding “O=C1OC(c2cccs2)=N/C1=C\c1ccc(N2CCOCC2)s1 [MAT-POS-fa06b69f-6]”, the figures for the pIC50 (with Mpro; in assay [2]) were 6.15 and 6.16, respectively.

Values taken from publication PMC11187573, “Identification of SARS-CoV-2 Mpro inhibitors through deep reinforcement learning for de novo drug design and computational chemistry approaches” (RSC Medicinal Chemistry, 2024).
